Laboratory results as given in patent publication US9573887B2, “Naphthalene derivative” (Daito Chemix Corporation, priority 2010, dated 2017).
Structures can show the parent of a compound that is named as a salt.

Target: T1, Mouse VCP (Mus musculus, UniProt Q01853)
T1 construct: histidine tag (N); made in house; host or cells: Sf-9 insect cells (baculovirus vector pVL1392)
Experiment: ATPase activity of purified His-tagged VCP, [γ-32P]ATP, liberated phosphate by liquid scintillation
Format: biochemical
Conditions: compounds of Examples; ATPase inhibitory activity; 500 ng VCP, 100 μM ATP, 37° C., 10 minutes
How it was run: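 N-terminally His-tagged mouse VCP, expressed in Sf-9 cells and nickel-purified, was incubated (500 ng) with 100 μM [γ-32P]ATP and test substance at various concentrations in pH 7.4 HEPES/KCl/MgCl2/DTT buffer, 37° C, 10 min. After TCA stop, released phosphate was molybdate-extracted into organic phase and scintillation-counted. IC50 fitted from concentration-response.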

T1 sequence (Q01853 whole entry): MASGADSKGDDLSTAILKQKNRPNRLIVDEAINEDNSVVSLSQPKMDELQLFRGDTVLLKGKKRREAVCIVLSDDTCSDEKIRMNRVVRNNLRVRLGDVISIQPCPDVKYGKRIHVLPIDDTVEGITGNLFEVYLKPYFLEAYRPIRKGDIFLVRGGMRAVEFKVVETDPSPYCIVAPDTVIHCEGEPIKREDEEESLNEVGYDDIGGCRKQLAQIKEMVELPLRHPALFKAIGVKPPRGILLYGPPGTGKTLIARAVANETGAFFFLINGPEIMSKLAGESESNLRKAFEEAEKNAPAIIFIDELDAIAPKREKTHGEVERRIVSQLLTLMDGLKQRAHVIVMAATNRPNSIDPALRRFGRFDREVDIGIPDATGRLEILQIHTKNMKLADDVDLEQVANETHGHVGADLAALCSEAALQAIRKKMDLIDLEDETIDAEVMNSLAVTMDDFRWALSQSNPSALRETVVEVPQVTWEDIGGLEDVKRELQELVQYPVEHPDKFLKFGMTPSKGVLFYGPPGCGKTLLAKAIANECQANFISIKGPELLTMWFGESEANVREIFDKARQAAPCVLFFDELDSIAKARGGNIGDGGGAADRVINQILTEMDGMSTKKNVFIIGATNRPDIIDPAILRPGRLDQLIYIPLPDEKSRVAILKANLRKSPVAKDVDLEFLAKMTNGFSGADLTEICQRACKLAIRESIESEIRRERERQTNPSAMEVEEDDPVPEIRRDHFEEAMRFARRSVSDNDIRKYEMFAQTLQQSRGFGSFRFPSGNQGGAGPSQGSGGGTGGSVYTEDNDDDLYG

| Compound | IC50 [µM] |
| --- | --- |
| Cc1cc(/N=N/c2cc(S(=O)(=O)O)c3ccccc3c2N)cnc1-c1ccccc1-c1ccccc1 [Example 86, 4-amino-3-(6-biphenyl-2-yl-5-methylpyridine-3-ylazo)naphthalene-1-sulfonic acid sodium salt] | 0.552 |
| Nc1c(/N=N/c2cnc(Cl)c(-c3ccccc3)c2)cc(S(=O)(=O)O)c2ccccc12 [Example 88, 4-amino-3-(6-chloro-5-phenylpyridine-3-ylazo)naphthalene-1-sulfonic acid sodium salt] | 0.348 |
| Nc1c(/N=N/c2cnc(-c3ccccc3)c(-c3ccccc3)c2)cc(S(=O)(=O)O)c2ccccc12 [Example 89, 4-amino-3-(5,6-diphenylpyridine-3-ylazo)naphthalene-1-sulfonic acid sodium salt] | 0.501 |
| Cc1cccc(C)c1-c1ccc(/N=N/c2cc(S(=O)(=O)O)c3ccccc3c2N)cn1 [Example 90, 4-amino-3-[6-(2,6-dimethylphenyl)pyridine-3-ylazo]naphthalene-1-sulfonic acid sodium salt] | 0.112 |
| Cc1cc(C=O)c(OC(C)C)c(-c2ccc(/N=N/c3cc(S(=O)(=O)O)c4ccccc4c3N)cn2)c1 [Example 91, 4-amino-3-[6-(3-formyl-2-isopropoxy-5-methylphenyl)pyridine-3-ylazo]naphthalene-1-sulfonic acid sodium salt] | 0.212 |
| CCCCOc1c(C=O)cc(C)cc1-c1ccc(/N=N/c2cc(S(=O)(=O)O)c3ccccc3c2N)cn1 [Example 92, 4-amino-3-[6-(3-formyl-2-butoxy-5-methylphenyl)pyridine-3-ylazo]naphthalene-1-sulfonic acid sodium salt] | 0.161 |
| Nc1c(/N=N/c2ccc(NC(=O)c3cccs3)cc2)cc(S(=O)(=O)O)c2ccccc12 [Example 97, 4-amino-3-[4-[(2-thienylcarbonyl)amino]phenylazo]-1-naphthalenesulfonic acid sodium salt] | 0.804 |
| Nc1c(/N=N/c2ccccc2Cl)cc(S(=O)(=O)O)c2ccccc12 [Example 98, 4-amino-3-(2-chlorophenylazo)naphthalene-1-sulfonic acid sodium salt] | 0.591 |
| N#Cc1ccccc1/N=N/c1cc(S(=O)(=O)O)c2ccccc2c1N [Example 105, 4-amino-3-(2-cyanophenylazo)naphthalene-1-sulfonic acid sodium salt] | 0.238 |
| Nc1c(/N=N/c2ccccc2Br)cc(S(=O)(=O)O)c2ccccc12 [Example 108, 4-amino-3-(2-bromophenylazo)naphthalene-1-sulfonic acid sodium salt] | 0.288 |
| Nc1c(/N=N/c2ccc(Cl)cc2Cl)cc(S(=O)(=O)O)c2ccccc12 [Example 111, 4-amino-3-(2,4-dichlorophenylazo)naphthalene-1-sulfonic acid sodium salt] | 0.244 |
| Nc1c(/N=N/c2ccc(Br)cc2Br)cc(S(=O)(=O)O)c2ccccc12 [Example 113, 4-amino-3-(2,4-dibromophenylazo)naphthalene-1-sulfonic acid sodium salt] | 0.266 |
| Nc1c(/N=N/c2c(Br)cc(Br)cc2Br)cc(S(=O)(=O)O)c2ccccc12 [Example 114, 4-amino-3-(2,4,6-tribromophenylazo)naphthalene-1-sulfonic acid sodium salt] | 0.099 |
| Nc1c(/N=N/c2c(Cl)cc(Cl)cc2Cl)cc(S(=O)(=O)O)c2ccccc12 [Example 115, 4-amino-3-(2,4,6-trichlorophenylazo)naphthalene-1-sulfonic acid sodium salt] | 0.297 |
| Nc1c(/N=N/c2ccc(Cl)cc2Br)cc(S(=O)(=O)O)c2ccccc12 [Example 117, 4-amino-3-(2-bromo-4-chlorophenylazo)naphthalene-1-sulfonic acid sodium salt] | 0.23 |
| N#Cc1cc(Cl)ccc1/N=N/c1cc(S(=O)(=O)O)c2ccccc2c1N [Example 118, 4-amino-3-(4-chloro-2-cyanophenylazo)naphthalene-1-sulfonic acid sodium salt] | 0.105 |
| Nc1c(/N=N/c2ccc(F)cc2Cl)cc(S(=O)(=O)O)c2ccccc12 [Example 119, 4-amino-3-(2-chloro-4-fluorophenylazo)naphthalene-1-sulfonic acid sodium salt] | 0.737 |
| Cc1ccc(/N=N/c2cc(S(=O)(=O)O)c3ccccc3c2N)c([N+](=O)[O-])c1 [Example 120, 4-amino-3-(4-methyl-2-nitrophenylazo)naphthalene-1-sulfonic acid sodium salt] | 0.162 |
| COc1cc([N+](=O)[O-])ccc1/N=N/c1cc(S(=O)(=O)O)c2ccccc2c1N [Example 121, 4-amino-3-(2-methoxy-4-nitrophenylazo)naphthalene-1-sulfonic acid sodium salt] | 2.56 |
| Nc1c(/N=N/c2ccc(C(=O)Nc3ccc(CC(C(=O)O)C(=O)O)cc3)cc2)cc(S(=O)(=O)O)c2ccccc12 [Example 124, 2-{4-[4-(1-amino-4-sulfonaphthalene-2-ylazo)benzoylamino]benzyl}malonic acid trisodium salt] | 4.01 |
| Nc1c(/N=N/c2ccc(-c3cncc4ccccc34)cc2)cc(S(=O)(=O)O)c2ccccc12 [Example 127, sodium salt] | 0.295 |
| Nc1c(/N=N/c2c(Br)cc(-c3cccnc3)cc2Br)cc(S(=O)(=O)O)c2ccccc12 [Example 128, 4-amino-3-(2,6-dibromo-4-pyridine-3-ylphenylazo)naphthalene-1-sulfonic acid sodium salt] | 0.128 |

Second part, the molecule after the results:

| IC50 [µM] | Compound |
| --- | --- |
| 0.762 | Nc1c(/N=N/c2ccccc2)cc(S(=O)(=O)O)c2ccccc12 [Example 93, 4-amino-3-phenylazonaphthalene-1-sulfonic acid sodium salt] |
| 1.11 | Nc1c(/N=N/c2ccccc2F)cc(S(=O)(=O)O)c2ccccc12 [Example 94, 4-amino-3-(2-fluorophenylazo)naphthalene-1-sulfonic acid sodium salt] |
| 0.393 | Nc1c(/N=N/c2ccc(C(F)(F)F)cc2)cc(S(=O)(=O)O)c2ccccc12 [Example 95, 4-amino-3-(4-trifluoromethylphenylazo)naphthalene-1-sulfonic acid sodium salt] |
| 1.63 | Nc1c(/N=N/c2cccc([N+](=O)[O-])c2)cc(S(=O)(=O)O)c2ccccc12 [Example 96, 4-amino-3-(3-nitrophenylazo)naphthalene-1-sulfonic acid sodium salt] |
| 1.39 | Nc1c(/N=N/c2cccc(Cl)c2)cc(S(=O)(=O)O)c2ccccc12 [Example 99, 4-amino-3-(3-chlorophenylazo)naphthalene-1-sulfonic acid sodium salt] |
| 0.408 | Nc1c(/N=N/c2ccc(Cl)cc2)cc(S(=O)(=O)O)c2ccccc12 [Example 100, 4-amino-3-(4-chlorophenylazo)naphthalene-1-sulfonic acid sodium salt] |
| 1.76 | Nc1c(/N=N/c2cccc(F)c2)cc(S(=O)(=O)O)c2ccccc12 [Example 101, 4-amino-3-(3-fluorophenylazo)naphthalene-1-sulfonic acid sodium salt] |
| 0.904 | Nc1c(/N=N/c2ccc(F)cc2)cc(S(=O)(=O)O)c2ccccc12 [Example 102, 4-amino-3-(4-fluorophenylazo)naphthalene-1-sulfonic acid sodium salt] |
| 0.887 | CCOC(=O)c1ccc(/N=N/c2cc(S(=O)(=O)O)c3ccccc3c2N)cc1 [Example 103, ethyl 4-(1-amino-4-sulfonaphthalene-2-ylazo)benzoate sodium salt] |
| 2.07 | Nc1c(/N=N/c2ccc(C(=O)O)cc2)cc(S(=O)(=O)O)c2ccccc12 [Example 104, 4-(1-amino-4-sulfonaphthalene-2-ylazo)benzoic acid disodium salt] |
| 2.26 | N#Cc1cccc(/N=N/c2cc(S(=O)(=O)O)c3ccccc3c2N)c1 [Example 106, 4-amino-3-(3-cyanophenylazo)naphthalene-1-sulfonic acid sodium salt] |
| 0.54 | N#Cc1ccc(/N=N/c2cc(S(=O)(=O)O)c3ccccc3c2N)cc1 [Example 107, 4-amino-3-(4-cyanophenylazo)naphthalene-1-sulfonic acid sodium salt] |
| 0.856 | Nc1c(/N=N/c2cccc(Br)c2)cc(S(=O)(=O)O)c2ccccc12 [Example 109, 4-amino-3-(3-bromophenylazo)naphthalene-1-sulfonic acid sodium salt] |
| 0.226 | Nc1c(/N=N/c2ccc(Br)cc2)cc(S(=O)(=O)O)c2ccccc12 [Example 110, 4-amino-3-(4-bromophenylazo)naphthalene-1-sulfonic acid sodium salt] |
| 0.526 | Nc1c(/N=N/c2ccc(Cl)c(Cl)c2)cc(S(=O)(=O)O)c2ccccc12 [Example 112, 4-amino-3-(3,4-dichlorophenylazo)naphthalene-1-sulfonic acid sodium salt] |
| 1.23 | Nc1c(/N=N/c2ccc(F)cc2F)cc(S(=O)(=O)O)c2ccccc12 [Example 116, 4-amino-3-(2,4-difluorophenylazo)naphthalene-1-sulfonic acid sodium salt] |
| 0.849 | Cc1ccc(/N=N/c2cc(S(=O)(=O)O)c3ccccc3c2N)cc1 [Example 122, 4-amino-3-p-tolylazonaphthalene-1-sulfonic acid sodium salt] |
| 0.274 | Nc1c(/N=N/c2ccc(-c3cccnc3)cc2)cc(S(=O)(=O)O)c2ccccc12 [Example 123, 4-amino-3-(4-pyridine-3-ylphenylazo)-1-naphthalenesulfonic acid sodium salt] |
| 0.417 | Cc1ccc(-c2ccc(/N=N/c3cc(S(=O)(=O)O)c4ccccc4c3N)cc2)cc1 [Example 125, 4-amino-3-(4′-methylbiphenyl-4-ylazo)naphthalene-1-sulfonic acid sodium salt] |
| 0.343 | Cc1cccc(-c2ccc(/N=N/c3cc(S(=O)(=O)O)c4ccccc4c3N)cc2)c1 [Example 126, 4-amino-3-(3′-methylbiphenyl-4-ylazo)naphthalene-1-sulfonic acid sodium salt] |
